Data: paper PMC3490914, “The Nonantibiotic Small Molecule Cyslabdan Enhances the Potency of β-Lactams against MRSA by Inhibiting Pentaglycine Interpeptide Bridge Synthesis” (PLoS ONE, 2012)

Legend:
FemB = molecular target: T1, FemB (Staphylococcus aureus, UniProt Q2FYR1); test: pull-down of purified recombinant protein on biotinylcyslabdan-immobilized avidin beads, SDS-PAGE (some background binding to beads alone)
T1 construct: recombinant, C-terminal hexahistidine tag

FemA (SAR1388) [1] = molecular target: T2, FemA (SAR1388) (Staphylococcus aureus, UniProt P0A0A5); test: pull-down of purified recombinant protein on biotinylcyslabdan-immobilized avidin beads, SDS-PAGE; also from MRSA lysate with LC-MS/MS; format: binding
T2 construct: recombinant, C-terminal hexahistidine tag

FemA (SAR1388) [2] = molecular target: T2, FemA (SAR1388); test: in vitro glycyl transfer assay with purified FemA, monoglycyl lipid II and […]-glycine, TLC/phosphoimaging; supported by pull-down with biotinylcyslabdan; format: biochemical

Row | IC50 (FemA (SAR1388) [2]) | SMILES | pull-down of purified recombinant protein on biotinylcyslabdan-immobilized avidi (FemB) | pull-down of purified recombinant protein on biotinylcyslabdan-immobilized avidi (FemA (SAR1388) [1])
1 | – | C=C/C(C)=C/CC1C2(C)CCCC(C)(C)C2CC(O)C1(O)CSC[C@H](NC(C)=O)C(=O)NCCOCCOCCNC(=O)CCCCC1SC[C@@H]2NC(=O)N[C@H]12 (stereo partly drawn) [biotinylcyslabdan] | FemB was bound to only avidin beads, while the binding amount of FemB increased in the presence of biotinylcyslabdan | Purified recombinant SAR1388 protein was then added to avidin beads onto which biotinylcyslabdan had been immobilized.
2 | 530 µM | C=C/C(C)=C/C[C@@H]1[C@@]2(C)CCCC(C)(C)[C@@H]2C[C@H](O)[C@]1(O)CSC[C@H](NC(C)=O)C(=O)O [cyslabdan] | – | –
